{"source": "patent US10682388B2", "about": "“Targeting of PELP1 in cancer therapy” (THE BOARD OF REGENTS OF THE UNIVERSITY OF TEXAS SYSTEM, priority 2014, dated 2020)", "key": {"[1]": {"biological_target": "T1, PELP1, G9a and ERα complex (Homo sapiens, UniProt Q8IZL8)", "T1 construct": "purified bacterial, full-length PELP1; host or cells: bacteria (PELP1)", "T1 sequence (Q8IZL8 2-1130, one chain of several)": "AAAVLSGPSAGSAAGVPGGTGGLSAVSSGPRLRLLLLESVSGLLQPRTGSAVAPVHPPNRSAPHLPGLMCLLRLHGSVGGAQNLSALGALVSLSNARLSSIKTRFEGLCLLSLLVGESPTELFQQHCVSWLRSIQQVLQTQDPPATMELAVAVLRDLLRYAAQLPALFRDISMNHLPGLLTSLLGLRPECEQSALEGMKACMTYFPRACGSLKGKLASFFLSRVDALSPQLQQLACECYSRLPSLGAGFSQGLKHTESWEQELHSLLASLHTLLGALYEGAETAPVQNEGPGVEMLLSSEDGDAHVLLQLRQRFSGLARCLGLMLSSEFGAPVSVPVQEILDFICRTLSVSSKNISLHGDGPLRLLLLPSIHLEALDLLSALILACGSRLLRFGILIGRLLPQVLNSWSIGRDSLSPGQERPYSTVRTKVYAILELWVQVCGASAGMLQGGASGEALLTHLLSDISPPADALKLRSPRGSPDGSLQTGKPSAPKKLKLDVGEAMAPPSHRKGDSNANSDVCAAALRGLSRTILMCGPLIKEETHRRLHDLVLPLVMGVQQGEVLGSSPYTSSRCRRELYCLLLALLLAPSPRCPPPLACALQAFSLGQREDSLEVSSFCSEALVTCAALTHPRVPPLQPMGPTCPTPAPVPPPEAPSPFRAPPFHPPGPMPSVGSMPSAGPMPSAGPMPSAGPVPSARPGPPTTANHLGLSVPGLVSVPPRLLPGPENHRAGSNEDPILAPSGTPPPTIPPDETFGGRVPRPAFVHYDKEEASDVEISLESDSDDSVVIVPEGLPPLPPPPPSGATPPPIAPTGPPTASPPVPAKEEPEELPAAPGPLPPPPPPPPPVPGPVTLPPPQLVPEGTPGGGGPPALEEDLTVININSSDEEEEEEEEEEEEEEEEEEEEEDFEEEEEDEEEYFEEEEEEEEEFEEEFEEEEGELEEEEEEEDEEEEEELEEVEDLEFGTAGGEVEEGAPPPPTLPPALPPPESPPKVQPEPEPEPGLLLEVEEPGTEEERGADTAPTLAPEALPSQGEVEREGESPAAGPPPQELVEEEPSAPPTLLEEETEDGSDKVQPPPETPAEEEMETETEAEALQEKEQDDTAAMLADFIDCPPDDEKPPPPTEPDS", "test": "Competition assay for the complex of PELP1, G9a and ERα", "assay_type": "binding", "details": "FIG. 2C", "experimental": "FIGS. 2A-D. (FIG. 2A) Immunoprecipitation was performed on nuclear lysates obtained from […]1 cells grown in 5% DCC for 72 hours and treated with estradiol 10^-7 M for 12 hours. PELP1 was immunoprecipitated and western blotting was performed for PELP1 and G9a expression with IgG as the control. (FIG. 2B) Various fragments of PELP1 bound to glutathione beads were incubated with recombinant G9a for 2 hours. Beads were washed, run on an SDS-PAGE gel and immunoblotted for G9a expression. GST tag alone is shown as control. (FIG. 2C) Recombinant G9a-GST was bound to glutathione beads and incubated with purified PELP1 and peptides for 2 hours. Beads were washed and run on SDS-PAGE gel. (FIG. 2D) ZR75 cells were transfected with ERE-luciferase, PELP1 and/or G9a plasmids and treated with peptide for 24 hours and estradiol 10^-7 M for 12 hours. Relative luciferase activity is shown. Peptides were linked to EZ-Link NHS-Biotin (Thermo Scientific) per manutfacturer's protocol. […] Beads were washed 3× with IP buffer (20 mM HEPES pH 7.9, 20% glycerol, 0.1% triton-x, 100 mM KCl), eluted with SDS-dye, and PELP1 expression was determined by western blotting. […]"}, "[2]": {"test_system": "ERE-luciferase in ZR75 cells", "test": "ERE-luciferase reporter gene assay in ZR75 cells transfected with PELP1 and/or G9a", "assay_type": "cell-based, Human", "details": "FIG. 2D", "experimental": "FIGS. 2A-D. (FIG. 2A) Immunoprecipitation was performed on nuclear lysates obtained from ZRPELP1 cells grown in 5% DCC for 72 hours and treated with estradiol 10^−7 M for 12 hours. PELP1 was immunoprecipitated and western blotting was performed for PELP1 and G9a expression with IgG as the control. (FIG. 2B) Various fragments of PELP1 bound to glutathione beads were incubated with recombinant G9a for 2 hours. Beads were washed, run on an SDS-PAGE gel and immunoblotted for G9a expression. GST tag alone is shown as control. (FIG. 2C) Recombinant G9a-GST was bound to glutathione beads and incubated with purified PELP1 and peptides for 2 hours. Beads were washed and run on SDS-PAGE gel. (FIG. 2D) ZR75 cells were transfected with ERE-luciferase, PELP1 and/or G9a plasmids and treated with peptide for 24 hours and estradiol 10^−7 M for 12 hours. Relative luciferase activity is shown.\nModel cells were seeded in 6-well plates. After overnight incubation, the cells were transfected with ERE-Luc plasmids using fugene for 6 h. Then, 24 hours after transfection, cells were incubated in 5% DCC media for estrogen starvation and then treated with TAT or PIP1/PIP2 for an additional 24 hours and estradiol (10^−8) for 12 hours. […] Luciferase activity was measured by using the luciferase assay system (Promega, Madison, Wis.)."}, "[3]": {"test_system": "ZR75, ZR75PELP1, MCF7 and MCF7PELP1 cells", "test": "MTT proliferation assay, breast cancer cells with and without PELP1 overexpression", "assay_type": "cell-based, Human", "details": "10 μM every 3 days, day 7, FIG. 4A", "experimental": "FIGS. 4A-E. (FIG. 4A) ZR75vec, ZR75PELP1, MCF7vec and MCF7PELP1 cells were treated in triplicate with TAT, PIP1 or PIP1 deletions (Del1, Del2, Del3) at 10 uM every 3 days and proliferation was measured by MTT assay on day 7. (FIG. 4B) ZRPELP1 cells were transfected with ERE-luciferase and treated with TAT, PIP1, or PIP2 for 24 hours and with estradiol for 12 hours. Relative luciferase activity was measured in triplicate. (FIG. 4C) ZR75 cells were grown in 5% DCC media for 72 hours, treated with TAT or PIP1 every 3 days, and treated with estradiol 10^−7 M for 12 hours. Proliferation was measured in triplicate on day 7 by MTT assay at 595 nm. (FIG. 4D) MCF7-Letrozole resistant cells were grown in 5% DCC media for 72 hours, treated with TAT, PIP1 or PIP2 every 3 days, and letrozole or estradiol 10^−7 M for 12 hours. Proliferation was measured in triplicate on day 7 by MTT assay at 595 nm. […] Proliferation was measured in triplicate on day 7 by MTT assay at 595 nm.\nCell proliferation rates were measured by using MTT Cell Viability Assay in 96-well plates. […] After an overnight incubation, cells were treated with varying concentrations of the peptides for 3-7 days and growth inhibition was determined by using traditional MTT assay (Sigma) following manufacturer's instructions."}, "[4]": {"test_system": "MCF7PELP1 Cd44high/CD22low cells", "test": "Mammosphere formation and self-renewal assay on FACS-sorted cells", "assay_type": "cell-based, Human", "from_the_text": "FIGS. 6A-C. (FIG. 6A) ZR75, ZR75PELP1 and ZR75PELP1KD cells were FACS sorted for CD44-APC and CD24-PE, and quantification of percentage of CD44high/CD24low cells is shown. (FIG. 6B) MCF7PELP1 cells were FACS sorted for CD44high/CD24low cells and plated in triplicate in serum free mammosphere media with TAT or PIP1 in various concentrations. Mammospheres were counted and imaged on day 7. Representative images are shown on right. (FIG. 6C) Mammospheres from previous assay (C) were dissociated and replated in serum free mammosphere media. Mammospheres were counted and imaged on day 7. Representative images are shown on right. ZR75PELP1 and MCF7PELP1 cells were FACS sorted for CD44-APC^high (Milteny Biotec) and CD24-PE^low (Milteny Biotec) cell surface markers. A single cell suspension of model cells ZR75-PELP1 were seeded in mammosphere media in a low adherent 96-well plate with TAT or PIP (10, 20 or 50 μM). Media containing peptide was added on day 4 and mammospheres were counted and imaged on day 8 (Shaw et al., 2012)."}}, "note": "“Also recorded” adds a separate entry of the source."}
{"sequence": "GRKKRRQRRRGGMVEFRWSCPGRRKAKA [PIP1]", "values": [{"measurement": "formation of PELP1, G9a and ERα complex", "setting": "[1]", "result": "prevents the three proteins from forming a complex"}, {"measurement": "estrogen response synergistically activated by PELP1 and G9a (ERE-luciferase)", "setting": "[2]", "result": "inhibited"}, {"measurement": "proliferation by MTT assay", "setting": "[3]", "result": "significant decrease"}, {"measurement": "number of mammospheres", "setting": "[4]; 10, 20 and 50 μM, FIG. 6B", "result": "significant decrease in the number of mammospheres"}, {"measurement": "size of the mammospheres", "setting": "[4]; 10, 20 and 50 μM, FIG. 6B", "result": "substantially decreased"}, {"measurement": "self-renewal capacity of replated mammospheres", "setting": "[4]; dissociated and replated, FIG. 6C", "result": "decreased self-renewal capacity; also recorded: inhibits the self-renewal of the cancer stem cells"}]}
